Results from US6455510B1, “Chemical Compounds” (SmithKline Beecham Corporation, priority 1997, dated 2002).

What was measured:
[1] = target: T1, human adenosine A1 receptor (Homo sapiens, UniProt P30542); assay: Reporter gene assay (CRE/SPAP) in CHO cells, agonist activity, adenosine A1; type: cell-based; settings: CHO cells stably transfected with human adenosine A1 receptor; inhibition of forskolin-stimulated SPAP production; potency relative to NECA=1
T1 construct: expressed in transfected cells; host or cells: Chinese hamster ovary (CHO) cells containing CRE/SPAP/HYG reporter elements
T1 sequence (P30542 1-326): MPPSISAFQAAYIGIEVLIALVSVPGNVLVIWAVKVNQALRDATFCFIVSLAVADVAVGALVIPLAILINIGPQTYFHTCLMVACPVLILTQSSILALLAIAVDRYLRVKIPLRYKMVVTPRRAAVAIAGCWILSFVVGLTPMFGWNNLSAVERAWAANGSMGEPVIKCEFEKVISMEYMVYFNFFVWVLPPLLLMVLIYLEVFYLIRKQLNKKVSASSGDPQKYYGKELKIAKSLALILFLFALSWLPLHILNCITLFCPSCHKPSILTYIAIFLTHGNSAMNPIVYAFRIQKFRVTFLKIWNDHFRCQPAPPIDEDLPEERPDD
Experimental: (§1) Reporter Gene Experiments
Agonist activity was measured in Chinese hamster ovary (CHO) cells containing the CRE/SPAP/HYG (CRE=cyclic AMP response element; HYG=hygromycin resistance; SPAP=secreted placental alkaline phosphatase) reporter gene elements, which upon stimulation of cAMP levels produced SPAP. A cell line was used, which was stably transfected with either the human adenosine Al receptor or the human adenosine A3 receptor in addition to the above elements. Cells were plated out in 96-well plates in culture medium and incubated at 37° C. for 1 hour. […] 15 Min later, cAMP levels were stimulated by addition of a maximal concentration of forskolin. All cells were then incubated for a further 5 hours at 37° C., and cooled to room temperature, after which a substrate for the phosphatase (para-nitrophenol phosphate, pNPP), which is converted by SPAP to a coloured reagent) was then added and the 96-well plates were read in a plate reader. From these readings, the concentration-dependence of the inhibition by the agonist for forskolin-stimulated SPAP production can be calculated.
(§2) (ECR=equipotent concentration ratio relative to NECA=1)

[2] = target: T2, human adenosine A3 receptor (Homo sapiens, UniProt P0DMS8); assay: Reporter gene assay (CRE/SPAP) in CHO cells, agonist activity, adenosine A3; type: cell-based; settings: CHO cells stably transfected with human adenosine A3 receptor; inhibition of forskolin-stimulated SPAP production; potency relative to NECA=1
T2 construct: expressed in transfected cells; host or cells: Chinese hamster ovary (CHO) cells containing CRE/SPAP/HYG reporter elements
T2 sequence (P0DMS8 1-318): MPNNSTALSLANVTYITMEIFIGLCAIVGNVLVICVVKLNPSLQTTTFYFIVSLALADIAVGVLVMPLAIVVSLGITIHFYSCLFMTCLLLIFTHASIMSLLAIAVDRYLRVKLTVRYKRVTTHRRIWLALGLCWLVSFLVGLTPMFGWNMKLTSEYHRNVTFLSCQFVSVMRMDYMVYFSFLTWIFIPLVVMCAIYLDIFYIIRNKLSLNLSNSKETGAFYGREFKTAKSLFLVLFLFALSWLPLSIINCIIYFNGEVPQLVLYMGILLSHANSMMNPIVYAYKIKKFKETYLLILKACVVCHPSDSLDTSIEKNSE
Experimental: as §1
Agonist activity was measured in Chinese hamster ovary (CHO) cells containing the CRE/SPAP/HYG (CRE=cyclic AMP response element; HYG=hygromycin resistance; SPAP=secreted placental alkaline phosphatase) reporter gene elements, which upon stimulation of cAMP levels produced SPAP. A cell line was used, which was stably transfected with either the human adenosine Al receptor or the human adenosine A3 receptor in addition to the above elements. Cells were plated out in 96-well plates in culture medium and incubated at 37° C. for 1 hour. For measurement of potency, agonists were added to the appropriate wells at a concentration range of approximately 10^−10-10^−5M. 15 Min later, cAMP levels were stimulated by addition of a maximal concentration of forskolin. All cells were then incubated for a further 5 hours at 37° C., and cooled to room temperature, after which a substrate for the phosphatase (para-nitrophenol phosphate, pNPP), which is converted by SPAP to a coloured reagent) was then added and the 96-well plates were read in a plate reader. From these readings, the concentration-dependence of the inhibition by the agonist for forskolin-stimulated SPAP production can be calculated. One of the agonists tested on each 96-well plate was the standard non-selective agonist, N-ethylcarboxamidoadenosine (NECA), and the potency of all test agonists is expressed relative to that of the NECA standard.
as §2

Compound	A1 Receptor, Reporter Gene Assay ECR (equipotent concentration ratio relative to NECA=1) [1]	A3 Receptor, Reporter Gene Assay ECR (equipotent concentration ratio relative to NECA=1) [2]
CC(F)(F)[C@H]1O[C@@H](n2cnc3c(NC4CC5CCC4C5)ncnc32)[C@H](O)[C@@H]1O (stereo partly drawn) [Example 5, (2R,3R,4S,5S)-2-[6-(Bicyclo[2.2.1]hept-2-ylamino)-purin-9-yl]-5-(1,1-difluoro-ethyl)-tetrahydro-furan-3,4-diol]	7.14	>257.00
O[C@@H]1[C@H](O)[C@@H](CF)O[C@H]1n1cnc2c(N[C@@H]3CCC[C@H]3F)nc(Cl)nc21 [Example 6, 2-Chloro-5-deoxy-5′-fluoro-N-(2R-fluoro-cyclopent-(R)-yl)-adenosine]		>156.00
O[C@@H]1[C@H](O)[C@@H](CF)O[C@H]1n1cnc2c(N[C@H]3CCC[C@@H]3O)nc(Cl)nc21 [Example 7, 2-Chloro-5′-deoxy-5′-fluoro-N-(2S-hydroxy-cyclopent-(S)-yl)adenosine]		>91.00
O[C@@H]1[C@H](O)[C@@H](CF)O[C@H]1n1cnc2c(NC3CC4CCC3C4)nc(Cl)nc21 (stereo partly drawn) [Example 8, N-(endo-Bicyclo[2.2.1]hept-2-yl)-2-chloro-5′-deoxy-5′-fluoro-adenosine]		>91.00
CCOC(=O)N1CCC(Nc2nc(Cl)nc3c2ncn3[C@@H]2O[C@H](CF)[C@@H](O)[C@H]2O)CC1 [Example 9, 4-[2-Chloro-9-(5S-fluoromethyl-3R,4S-dihydroxy-tetrahydro-furan-2R-yl)-9H-purin-6-ylamino]-piperidine-1-carboxylic acid ethyl ester]	3.00	>129.00
O[C@@H]1[C@H](O)[C@@H](CF)O[C@H]1n1cnc2c(NC3CC4CCC3C4)ncnc21 (stereo partly drawn) [Example 11, N-(endo-Bicyclo[2.2.1]hept-2-yl)-5′-deoxy-5′-fluoro-adenosine]		>152.00
O[C@@H]1[C@H](O)[C@@H](CF)O[C@H]1n1cnc2c(N[C@H]3CCC[C@@H]3O)ncnc21 [Example 13, 5′-Deoxy-5′-fluoro-N-(2S-hydroxy-cyclopent-(S)-yl)-adenosine]		>152.00
CCOC(=O)N1CCC(Nc2ncnc3c2ncn3[C@@H]2O[C@H](CF)[C@@H](O)[C@H]2O)CC1 [Example 14, 4-[9-(5S-Fluoromethyl-3R,4S-dihydroxy-tetrahydro-furan-2R-yl)-9H-purin-6-ylamino]-piperidine-1-carboxylic acid ethyl ester]	1.68	>435.00
OCC(O)CNc1nc(Cl)nc2c1ncn2[C@@H]1O[C@H](CF)[C@@H](O)[C@H]1O (stereo partly drawn) [Example 16, 2-Chloro-5′-deoxy-N-(2,3-dihydroxy-propyl)-5′-fluoro-adenosine]	7.29	>240.00
CC(F)(F)[C@H]1O[C@@H](n2cnc3c(NCC4CC4)ncnc32)[C@H](O)[C@@H]1O [Example 17, (2R,3R,4S,5S)-2-[6-(Cyclopropylmethyl-amino)-purin-9-yl]-(1,1-difluoro-ethyl)-tetrahydro-furan-3,4-diol]	22.30	>353.00
CNS(=O)(=O)CCNc1ncnc2c1ncn2[C@@H]1O[C@H](CF)[C@H](O)[C@H]1O [Example 18, 2-[9-(5S-Fluoromethyl-3R,4R-dihydroxy-tetrahydro-furan-2R-yl)-9H-purin-6-ylamino]-ethanesulfonic acid methylamide]	0.71	>353.00
CC(C)(C)CNc1ncnc2c1ncn2[C@@H]1O[C@H](CF)[C@@H](O)[C@H]1O [Example 19, 5′-Deoxy-5′-fluoro-N-(2,2-dimethyl-propyl)-adenosine]	3.51	>353.00
CC(C)(C)Nc1ncnc2c1ncn2[C@@H]1O[C@H](CF)[C@@H](O)[C@H]1O [Example 20, N-tert-Butyl-5′-deoxy-5′-fluoro-adenosine]	8.17	>353.00
O[C@@H]1[C@H](O)[C@@H](CF)O[C@H]1n1cnc2c(NC3CC4CCC3C4)nc(Cl)nc21 (stereo partly drawn) [Example 25, N-(exo-Bicyclo[2.2.1]hept-2-yl)-2-chloro-5′-deoxy-5′-fluoro-adenosine]		>151.00
O=S1(=O)CCC(Nc2ncnc3c2ncn3[C@@H]2O[C@H](CF)[C@@H](O)[C@H]2O)CC1 [Example 27]		>162.00

Now from value to compound:

A1 Receptor, Reporter Gene Assay ECR (equipotent concentration ratio relative to NECA=1) [1]	A3 Receptor, Reporter Gene Assay ECR (equipotent concentration ratio relative to NECA=1) [2]	Compound
11.8	>226.00	Cc1nc(NC2CCOCC2)c2ncn([C@@H]3O[C@H](CF)[C@@H](O)[C@H]3O)c2n1 [Example 2, 5′-Deoxy-5′-fluoro-2-methyl-N-(tetrahydro-pyran-4-yl)-adenosine]
2.41	>139.00	O[C@@H]1[C@H](O)[C@@H](CF)O[C@H]1n1cnc2c(NC3CCOCC3)nc(Cl)nc21 [Example 3, 2-Chloro-5′-deoxy-5′-fluoro-N-(tetrahydro-pyran-4-yl)-adenosine]
190.10		O[C@@H]1[C@H](O)[C@@H](C(F)(F)F)O[C@H]1n1cnc2c(NC3CCOCC3)nc(Cl)nc21 [Example 4, (2R,3 R,4S,5S)-2-[2-Chloro-6-(tetrahydro-pyran-4-ylamino)-purin-9-yl]-5-trifluoromethyl-tetrahydro-furan-3,4-diol]
66.80	>162.00	CC(=O)N1CCC(Nc2nc(Cl)nc3c2ncn3[C@@H]2O[C@H](CF)[C@@H](O)[C@H]2O)CC1 [Example 10, 1-{4-[2-Chloro-9-(5S-fluoromethyl-3R,4S-dihydrox-tetrahydro-furan-2R-yl)-9H-purin-6-ylamino]-piperidin-1-yl}-ethanone]
9.16	>435.00	O=S1(=O)CCC(Nc2nc(Cl)nc3c2ncn3[C@@H]2O[C@H](CF)[C@@H](O)[C@H]2O)CC1 [Example 15, 2-Chloro-5′-deoxy-N-(1,1-dioxo-hexahydro-1δ6-thiopyran-4-yl)-5′-fluoro-adenosine]
1.64	>353.00	O[C@@H]1[C@H](O)[C@@H](CF)O[C@H]1n1cnc2c(NC3CCSCC3)ncnc21 [Example 21, 5′-Deoxy-5′-fluoro-N-(tetrahydro-thiopyran-4-yl)-adenosine]
3.30	>145.00	CC(C)CNc1nc(Cl)nc2c1ncn2[C@@H]1O[C@H](CF)[C@@H](O)[C@H]1O [Example 22, 2-Chloro-5′-deoxy-5′-fluoro-N-isobutyl-adenosine]
